This test concerns Musca domestica. The experiment in a line: House fly surface repellent bioassay (treated floor tile bait stations). The note with it: house flies. The class given is in vivo. The method, then:
100 adult house flies (Musca domestica) were placed into the assay then exposed to treated bait stations, a control and test treatment. Fly response to the bait stations were recorded at predetermined time points with a video camera. Percent repellency was calculated and comparisons between treatments were made. All test house fly specimens were taken from in-house laboratory reared colonies, and were confirmed alive and in good condition prior to testing. No specimens showing any visible signs of stress, physical damage or pathogen infection were used in the study. When applicable a 1:1 male to female sex ratio was used to ensure equal susceptibility. The test arena was assembled and prepared prior to test initiation. The test arena consisted of a large 73.66 cm×73.66 cm×73.66 cm PVC frame work fitted with Thrips screening. At the top of the enclosed arena a USB powered video camera was suspended and centered over a 62.87 cm×62.87 cm section of white ceiling tile divided (marked with pencil) into equal quadrants. The bait stations were constructed as follows: A 1⁄4'' diameter hole was drilled in the center of a 10.8 cm by 10.8 cm white glazed clay tile. A 50 ml Falcon tube cap was affixed to the bottom of the tile over the hole to create a reservoir for the bait to be contained. Bait was pipetted into the reservoir then a cotton wick in inserted into the hole preventing flies from entering the reservoir and allowing bait to wick to the surface. The bait was at a 4:1:1 ratio of water, sugar, and coffee creamer. The chemical application method was as follows: Material was pipette applied to tile surface and allowed approximately 1 hour to dry. The chemical volume applied was 34 μl. Fly specimens were exposed for 24 hours. Assays were performed with a minimum of three replicates. The Tyra Tech Insect repellent surface cleaning/washing composition was comprised of 14.8% Active Ingredient (AI) blend and 85.2% other ingredients. It was confirmed that video cameras were appropriately viewing the center of the ceiling tile with a computer and computer program (such as […]). Flies were anesthetized with CO2 and then 100 flies were placed into a clean container. Insects were allowed to recover and acclimate to testing conditions for 1 hour prior to test initiation by placing and opening container with flies into assembled assay arena and allowing flies to disperse. All surfaces of bait station were cleaned with ethanol and allowed to dry. A pipette were used to treat the tile surface with the test material and treatment was spread over entire surface with pipette tip; material was allowed to dry for approximately 1 hour prior to test initiation. When dry, 5 ml of bait was pipetted into the reservoir. A cotton wick was inserted into the hole to ensuring that the top of the wick sits flush with the tile surface. A treated and a control bait station was placed into the test arena, one each centered within a randomly designated quadrant opposite of each other into a testing arena. Cameras were allowed to capture fly response over a 24 hour time period. Images were transferred to computer and data were analyzed. Photos were taken at each of the following time points: 15 minutes, 30 minutes, 1, 2, 3, 4, 5, 6, 7, 8, 12, 18 and 24 hours post introduction of treatment. At the conclusion of the test the image files were reviewed and the number of flies at each bait station was counted and recorded for both treatment and control. Average percent repellency was used as a standard measure of repellency of the treatments against insect species. Percent repellency was calculated for each treatment replicate by the following formula: Mean percent repellency for each treatment based on the data of the replicates at the given observation time points: Repellency between treatments was then compared using SAS version 9.3 to calculate the repeated measures ANOVA with time as repeated measure. Tukey's correction was used to ensure a remained at 0.05.

The record followed here is US20190208778A1, “INSECT REPELLENT SURFACE COMPOSITION” (ENVANCE TECHNOLOGIES, LLC, priority 2012, published 2019).

Each structure is given as a SMILES string.

For the molecule `CCN(CC)C(=O)c1cccc(C)c1` [DEET], the “Average mean percent repellency over 24 hours” value amounted to 57.1% and the “Median mean percent repellency over 24 hours” value is 61.3%. In addition, where the note is “repeated measures ANOVA, Tukey's correction”, the “statistical comparison of repellency between treatments” value is “significantly less repellent than any other treatment”. The molecule also displayed a mean percent repellency (time 0.25 h post introduction) of 66.7%. Under “time 1 h”, this molecule showed a mean percent repellency of 75.0%. Under “time 2 h”, this molecule returned a mean percent repellency of 0.0%. The same molecule yielded a mean percent repellency (time 3 h) of 50.0%. Besides, under “time 4 h”, the mean percent repellency came out at 50.0%. The mean percent repellency (time 5 h) is 62.5%. The molecule further registered a mean percent repellency (time 6 h) of 22.2%. In addition, the mean percent repellency (time 7 h) is reported as 60.0%. The mean percent repellency (time 8 h) is recorded as 70.6%. This molecule came in with a mean percent repellency (time 12 h) of 44.4%. This molecule also registered a mean percent repellency (time 18 h) of 83.3%. Further, for the setting “time 24 h”, the mean percent repellency is given as 100.0%.
